Experimental data as given in paper PMC11979685, “Synthesis of Derivatives of the Antibiotic Albicidin: The N‐Terminal Fragment as Key to Control Potency and Resistance Mediated by the Binding Protein AlbA” (Chemistry (Weinheim an Der Bergstrasse, Germany), 2025).
Converted amounts (≈) assume the structure as drawn. Where two headings read alike, the source gives them in different places.

Legend:
E. coli DNA gyrase = E. coli DNA gyrase (Escherichia coli, UniProt P0AES4); experiment: E. coli gyrase DNA cleavage assay; assay type: biochemical; design: key to Gyrase inhibition strong+ / weak −: + strong inhibition; − weak inhibition in comparison to compound 16; details: for CC50: E. coli gyrase DNA cleavage, read-out: CC50 (concentration at half-maximum cleavage); for Gyrase inhibition strong+ / weak −: qualitative DNA cleavage assay at 1 μM and 10 μM, in comparison to compound 16
Procedure: The target activity of the synthesized derivatives was investigated using a DNA cleavage assay with purified and enzymatically active E. coli DNA gyrase[8] (see SI). In this assay, albicidin‐stabilized complexes of gyrase and plasmid DNA are trapped, and subsequently denatured and deproteinated to reveal DNA linearized by gyrase. […] For the best performing compounds, which were able to fully stabilize the cleavage complex at a concentration of 1 μM, the concentrations at half‐maximum cleavage (CC50) were determined (Figure 3).
1.2 Escherichia coli Gyrase Cleavage Inhibition Assay
E. coli gyrase cleavage assays were executed by setting up a master mix including 0.25 µg relaxed plasmid (pBR322) in 35 mM Tris-HCl (pH 7.5), 24 mM KCl, 4 mM MgCl2, 2 mM dithithreitol (DTT), 1.8 mM spermidine, 1 mM ATP, 6.5% (wt/vol) glycerol and 0.1 mg/ml bovine serum albumin per reaction.
Of this stock solution, 13.2 µL was aliquoted for each reaction into 1.5 mL Eppendorf tubes and supplemented with 0.3 µL of the appropriate compound dilution or DMSO with a […] DMSO concentration of 2% per reaction. The reactions were started with 1.5 µL of 50 nM (pre-screening) or 40 nM (IC50 determinations) wt E. coli gyrase in dilution buffer (50 mM Tris-HCl (pH 7.5), 100 mM KCl, 2 mM DTT, 1 mM EDTA, and 50% (wt/vol) glycerol) for a […] volume of 15 µL. Reactions were incubated at 37°C for 30 minutes before addition of 1.5 µL 0.2% (wt/vol) SDS and 0.75 µL proteinase K (0.2 mg/mL) and further incubation at 37°C for 30 minutes to trap cleavage complexes. Reactions were stopped with 15 µL chloroform:isoamyl alcohol (24: 1 v/v) and 15 µL of STEB (40% (wt/vol) sucrose, […] Tris-Cl pH 8, 10 mM EDTA, 0.5 mg/mL bromophenol blue). After brief vortexing and centrifugation at 2,300g for 5 min, 15 µL of the aqueous phase was loaded onto 1% (wt/vol) agarose in TAE (Tris-acetate […] and EDTA […]) gels supplemented with 10 µg/mL ethidium bromide.
The gels were run at 85 V for 2 hours.
DNA was visualized (602/50, UV Trans, auto optimal exposure) with a ChemiDoc MP (Bio-Rad Laboratories Inc., equipped with ImageLab Touch Software v2.0.0.27) and the percentage of cleaved DNA relative to the total amount of DNA per lane was determined with ImageJ software.[2] IC50 curves were generated in GraphPad Prism (v10.0.0) using the non-linear regression curve fit variable slope with four parameters and least squares regression.

E. coli = experiment: MIC against E. coli in presence of 50 % human serum; assay type: cell-based; details: Escherichia coli, read-out: MICEc 50%HS
[1] = test system: Salmonella typhimurium TA100; experiment: MIC determination (broth microdilution); assay type: cell-based; details: Salmonella enterica, read-out: MIC S. typh.
Summary of the method: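 Inoculum: overnight LB culture (37°C, 200 rpm) → 0.5 McFarland in CA-MHB II, ~1x10^6 CFU mL-1. DMSO dilution series, final 128–0.016 μg/mL/well. 16 h, 30−37°C. Visual read. CLSI M07-A9.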

[2] = E. coli in presence of 50 % human serum

E. coli DNA gyrase, sequence (P0AES4 whole entry): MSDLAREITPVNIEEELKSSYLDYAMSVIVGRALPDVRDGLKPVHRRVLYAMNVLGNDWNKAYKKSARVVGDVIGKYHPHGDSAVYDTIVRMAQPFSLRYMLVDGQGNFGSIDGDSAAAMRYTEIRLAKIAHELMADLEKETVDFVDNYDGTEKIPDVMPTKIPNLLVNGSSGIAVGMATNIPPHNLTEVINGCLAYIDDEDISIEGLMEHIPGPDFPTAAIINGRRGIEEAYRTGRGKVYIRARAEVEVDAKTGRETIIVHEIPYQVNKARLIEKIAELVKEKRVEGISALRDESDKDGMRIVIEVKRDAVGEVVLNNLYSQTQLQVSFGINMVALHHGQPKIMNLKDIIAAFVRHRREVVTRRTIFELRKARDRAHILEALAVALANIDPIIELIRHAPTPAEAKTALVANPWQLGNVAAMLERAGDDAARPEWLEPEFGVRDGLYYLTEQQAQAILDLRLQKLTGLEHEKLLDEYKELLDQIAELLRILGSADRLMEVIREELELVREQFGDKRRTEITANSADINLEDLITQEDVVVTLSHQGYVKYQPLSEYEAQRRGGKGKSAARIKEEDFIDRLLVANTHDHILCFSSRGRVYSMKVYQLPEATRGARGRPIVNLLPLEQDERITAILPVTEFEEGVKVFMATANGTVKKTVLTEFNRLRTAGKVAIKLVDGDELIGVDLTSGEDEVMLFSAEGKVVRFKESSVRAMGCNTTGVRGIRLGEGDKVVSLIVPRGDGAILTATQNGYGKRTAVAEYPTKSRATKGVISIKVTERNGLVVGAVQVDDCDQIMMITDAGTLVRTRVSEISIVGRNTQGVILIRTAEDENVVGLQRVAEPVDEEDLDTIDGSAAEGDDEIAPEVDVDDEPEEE

COc1c(NC(=O)c2ccc(NC(=O)c3ccc(NC(=O)[C@H](Cc4c[nH]nn4)NC(=O)c4ccc(NC(=O)c5ccc(C#N)cc5)cc4)cn3)c(OC)c2O)ccc(C(=O)O)c1O [compound 4]
CC50 (E. coli DNA gyrase): 12 nM
Gyrase inhibition strong+ / weak − (E. coli DNA gyrase): +
MIC (E. coli; [2]): 1 µg/mL
MIC [1]: ≤ 0.016 µg/mL

COc1c(NC(=O)c2ccc(NC(=O)c3ccc(NC(=O)[C@H](Cc4c[nH]nn4)NC(=O)c4ccc(NC(=O)[C@@H](C)Oc5ccc(O)cc5)cc4)cn3)c(OC)c2O)ccc(C(=O)O)c1O [compound 9]
Gyrase inhibition strong+ / weak − (E. coli DNA gyrase): +
MIC (E. coli; [2]): ≥ 8 µg/mL
MIC [1]: 0.063 µg/mL (≈ 0.0708 µM)

COc1c(NC(=O)c2ccc(NC(=O)c3ccc(NC(=O)[C@H](Cc4c[nH]nn4)NC(=O)c4ccc(NC(=O)c5ccc6ccccc6n5)cc4)cn3)c(OC)c2O)ccc(C(=O)O)c1O [compound 11]
CC50 (E. coli DNA gyrase): 18 nM
Gyrase inhibition strong+ / weak − (E. coli DNA gyrase): +
MIC (E. coli; [2]): 2 µg/mL
MIC [1]: ≤ 0.016 µg/mL

COc1c(NC(=O)c2ccc(NC(=O)c3ccc(NC(=O)[C@H](Cc4c[nH]nn4)NC(=O)c4ccc(NC(=O)c5cc6ccccc6cn5)cc4)cn3)c(OC)c2O)ccc(C(=O)O)c1O [compound 12]
Gyrase inhibition strong+ / weak − (E. coli DNA gyrase): +
MIC (E. coli): 1 µg/mL
MIC [1]: ≤ 0.016 µg/mL

COc1c(NC(=O)c2ccc(NC(=O)c3ccc(NC(=O)[C@H](Cc4c[nH]nn4)NC(=O)c4ccc(NC(=O)c5cnc6ccccc6c5)cc4)cn3)c(OC)c2O)ccc(C(=O)O)c1O [compound 13]
Gyrase inhibition strong+ / weak − (E. coli DNA gyrase): +

COc1c(NC(=O)c2ccc(NC(=O)c3ccc(NC(=O)[C@H](Cc4c[nH]nn4)NC(=O)c4ccc(NC(=O)c5ccc6ncccc6c5)cc4)cn3)c(OC)c2O)ccc(C(=O)O)c1O [compound 14]
Gyrase inhibition strong+ / weak − (E. coli DNA gyrase): +
MIC (E. coli; [2]): 4 µg/mL
MIC [1]: ≤ 0.016 µg/mL

COc1c(NC(=O)c2ccc(NC(=O)c3ccc(NC(=O)[C@H](Cc4c[nH]nn4)NC(=O)c4ccc(NC(=O)c5ccc6nc(C)ccc6c5)cc4)cn3)c(OC)c2O)ccc(C(=O)O)c1O [compound 16]
Gyrase inhibition strong+ / weak − (E. coli DNA gyrase): +

COc1c(NC(=O)c2ccc(NC(=O)c3ccc(NC(=O)[C@H](Cc4c[nH]nn4)NC(=O)c4ccc(NC(=O)c5c[nH]c6ccccc6c5=O)cc4)cn3)c(OC)c2O)ccc(C(=O)O)c1O [compound 17]
Gyrase inhibition strong+ / weak − (E. coli DNA gyrase): +

CCn1cc(C(=O)Nc2ccc(C(=O)N[C@@H](Cc3c[nH]nn3)C(=O)Nc3ccc(C(=O)Nc4ccc(C(=O)Nc5ccc(C(=O)O)c(O)c5OC)c(O)c4OC)nc3)cc2)c(=O)c2ccc(C)nc21 [compound 18]
Gyrase inhibition strong+ / weak − (E. coli DNA gyrase): −
MIC (E. coli; [2]): 8 µg/mL
MIC [1]: ≤ 0.016 µg/mL

CCn1cc(C(=O)Nc2ccc(C(=O)N[C@@H](Cc3c[nH]nn3)C(=O)Nc3ccc(C(=O)Nc4ccc(C(=O)Nc5ccc(C(=O)O)c(O)c5OC)c(O)c4OC)nc3)cc2)c(=O)c2cc3c(cc21)OCO3 [compound 19]
Gyrase inhibition strong+ / weak − (E. coli DNA gyrase): −

COc1c(NC(=O)c2ccc(NC(=O)c3ccc(NC(=O)[C@H](Cc4c[nH]nn4)NC(=O)c4ccc(NC(=O)c5cc(=O)c6cc(F)ccc6o5)cc4)cn3)c(OC)c2O)ccc(C(=O)O)c1O [compound 20]
Gyrase inhibition strong+ / weak − (E. coli DNA gyrase): +
MIC (E. coli; [2]): 8 µg/mL
MIC [1]: ≤ 0.016 µg/mL

COc1c(NC(=O)c2ccc(NC(=O)c3ccc(NC(=O)[C@H](Cc4c[nH]nn4)NC(=O)c4ccc(NC(=O)c5cc6cc(O)ccc6[nH]5)cc4)cn3)c(OC)c2O)ccc(C(=O)O)c1O [compound 21]
Gyrase inhibition strong+ / weak − (E. coli DNA gyrase): +
MIC (E. coli; [2]): ≥ 8 µg/mL
MIC [1]: 0.125 µg/mL (≈ 0.141 µM)

COc1c(NC(=O)c2ccc(NC(=O)c3ccc(NC(=O)[C@H](Cc4c[nH]nn4)NC(=O)c4ccc(NC(=O)c5ccc6ncsc6c5)cc4)cn3)c(OC)c2O)ccc(C(=O)O)c1O [compound 22]
CC50 (E. coli DNA gyrase): 43 nM
Gyrase inhibition strong+ / weak − (E. coli DNA gyrase): +
MIC (E. coli; [2]): 0.5 µg/mL
MIC [1]: ≤ 0.016 µg/mL

COc1c(NC(=O)c2ccc(NC(=O)c3ccc(NC(=O)[C@H](Cc4c[nH]nn4)NC(=O)c4ccc(NC(=O)c5ccc6nc[nH]c6c5)cc4)cn3)c(OC)c2O)ccc(C(=O)O)c1O [compound 23]
Gyrase inhibition strong+ / weak − (E. coli DNA gyrase): +
MIC (E. coli; [2]): ≥ 8 µg/mL
MIC [1]: 0.125 µg/mL (≈ 0.144 µM)

COc1c(NC(=O)c2ccc(NC(=O)c3ccc(NC(=O)[C@H](Cc4c[nH]nn4)NC(=O)c4ccc(NC(=O)c5ccc6nn[nH]c6c5)cc4)cn3)c(OC)c2O)ccc(C(=O)O)c1O [compound 24]
Gyrase inhibition strong+ / weak − (E. coli DNA gyrase): +
MIC (E. coli; [2]): 2 µg/mL
MIC [1]: 0.031 µg/mL (≈ 0.0356 µM)
